In ChEMBL document CHEMBL5058647, “Data for DCP probe JNJ-9350” (2022):
“And” between values parts separate entries of the source, which are not always exact repeats. Equal values may be shown once. The source made the active and inactive calls. No cut-off for these calls is given here.

Columns and labels:
[1] = biological target: D(2) dopamine receptor (Homo sapiens) (UniProt P14416); settings: Compound concentration 10.0 uM
[2] = biological target: Alpha-2A adrenergic receptor (Homo sapiens, UniProt P08913); assay: GPCRScan assay: inhibition of Alpha2A; parameters: radioligand conc. used [nm] 1.0 – 3.0, parental cells stable MDCK
[3] = biological target: T1, Muscarinic acetylcholine receptor M4 (Homo sapiens) (UniProt P08173); settings: Compound concentration 10.0 uM
T1 sequence (whole entry): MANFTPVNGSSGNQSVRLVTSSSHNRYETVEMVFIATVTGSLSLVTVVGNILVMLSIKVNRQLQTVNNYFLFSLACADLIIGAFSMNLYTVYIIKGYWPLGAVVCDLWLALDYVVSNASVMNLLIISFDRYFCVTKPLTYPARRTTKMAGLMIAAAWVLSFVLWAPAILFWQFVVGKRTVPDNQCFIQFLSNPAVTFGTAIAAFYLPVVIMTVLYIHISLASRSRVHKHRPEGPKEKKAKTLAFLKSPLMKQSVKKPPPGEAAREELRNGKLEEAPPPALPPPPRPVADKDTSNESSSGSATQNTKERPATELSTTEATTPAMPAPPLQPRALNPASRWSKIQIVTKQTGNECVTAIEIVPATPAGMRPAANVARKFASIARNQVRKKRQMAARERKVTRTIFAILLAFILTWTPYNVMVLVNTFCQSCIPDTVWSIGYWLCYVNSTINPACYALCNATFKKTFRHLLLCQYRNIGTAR

[4] = biological target: T2, Spermine oxidase (Homo sapiens, UniProt Q9NWM0); assay: SMOX CETSA assay
[5] = biological target: Muscarinic acetylcholine receptor M5 (Homo sapiens) (UniProt P08912); settings: Compound concentration 10.0 uM
[6] = biological target: Lysine-specific histone demethylase 1A (Homo sapiens, UniProt O60341); assay: HyPerBlu KDM1A enzymatic assay
[7] = biological target: 3',5'-cyclic-AMP phosphodiesterase 4D (Homo sapiens) (UniProt Q08499); assay: PDE4D2 (h) CEREP ligand profiling; settings: Compound concentration 10.0 uM
[8] = biological target: 5-hydroxytryptamine receptor 7 (Homo sapiens) (UniProt P34969); settings: Compound concentration 10.0 uM
[9] = biological target: T3, 5-hydroxytryptamine receptor 1D (Homo sapiens, UniProt P28221); assay: GPCRScan assay: inhibition of 5-HT1D; parameters: radioligand conc. used [nm] 1.0 – 2.0, parental cells HEKT
[10] = biological target: T3, 5-hydroxytryptamine receptor 1D; settings: Compound concentration 10.0 uM
[11] = biological target: 5-hydroxytryptamine receptor 3A (Homo sapiens) (UniProt P46098); settings: Compound concentration 10.0 uM
[12] = biological target: Beta-3 adrenergic receptor (Homo sapiens) (UniProt P13945); settings: Compound concentration 10.0 uM
[13] = biological target: T4, 5-hydroxytryptamine receptor 2B (Homo sapiens, UniProt P41595); assay: 5-HT2B (h) CEREP ligand profiling; settings: filed as agonist, Compound concentration 10.0 uM
[14] = biological target: Sodium-dependent serotonin transporter (Homo sapiens) (UniProt P31645); settings: Compound concentration 10.0 uM
[15] = biological target: Muscarinic acetylcholine receptor M1 (Homo sapiens) (UniProt P11229); settings: Compound concentration 10.0 uM
[16] = biological target: T5, Kappa-type opioid receptor (Homo sapiens, UniProt P41145); assay: GPCRScan assay: inhibition of KOR; parameters: radioligand conc. used [nm] 0.6 – 1.2, parental cells stable HEK
[17] = biological target: Beta-1 adrenergic receptor (Homo sapiens) (UniProt P08588); settings: Compound concentration 10.0 uM
[18] = biological target: T6, Sigma intracellular receptor 2 (Homo sapiens, UniProt Q5BJF2); assay: GPCRScan assay: inhibition of Sigma 2; parameters: radioligand conc. used [nm] 5.0, parental cells HEKT
[19] = biological target: Sodium-dependent dopamine transporter (Homo sapiens, UniProt Q01959); settings: Compound concentration 10.0 uM
[20] = biological target: T7, 5-hydroxytryptamine receptor 1B (Homo sapiens, UniProt P28222); assay: GPCRScan assay: inhibition of 5-HT1B; parameters: radioligand conc. used [nm] 0.6 – 1.5, parental cells stable HEK
[21] = biological target: Sigma non-opioid intracellular receptor 1 (Homo sapiens) (UniProt Q99720); settings: Compound concentration 10.0 uM
[22] = biological target: Substance-K receptor (Homo sapiens) (UniProt P21452); assay: NK2 (h) CEREP ligand profiling; settings: filed as agonist, Compound concentration 10.0 uM
[23] = biological target: T7, 5-hydroxytryptamine receptor 1B; settings: Compound concentration 10.0 uM
[24] = species: Rattus norvegicus; settings: Compound concentration 10.0 uM
[25] = biological target: 5-hydroxytryptamine receptor 5A (Homo sapiens) (UniProt P47898); settings: Compound concentration 10.0 uM
[26] = biological target: Alpha-1A adrenergic receptor (Homo sapiens) (UniProt P35348); settings: Compound concentration 10.0 uM
[27] = biological target: 5-hydroxytryptamine receptor 1A (Homo sapiens) (UniProt P08908); settings: Compound concentration 10.0 uM
[28] = biological target: Alpha-2B adrenergic receptor (Homo sapiens) (UniProt P18089); settings: Compound concentration 10.0 uM
[29] = biological target: Peroxisomal N(1)-acetyl-spermine/spermidine oxidase (Homo sapiens, UniProt Q6QHF9); assay: HyPerBlu POAX enzymatic assay
[30] = biological target: T4, 5-hydroxytryptamine receptor 2B; settings: Compound concentration 10.0 uM
[31] = biological target: Delta-type opioid receptor (Homo sapiens) (UniProt P41143); settings: Compound concentration 10.0 uM
[32] = biological target: 5-hydroxytryptamine receptor 2A (Homo sapiens) (UniProt P28223); assay: 5-HT2A (h) CEREP ligand profiling; settings: filed as agonist, Compound concentration 10.0 uM
[33] = biological target: Adenosine receptor A2a (Homo sapiens) (UniProt P29274); assay: A2A (h CEREP ligand profiling; settings: filed as agonist, Compound concentration 10.0 uM
[34] = biological target: 5-hydroxytryptamine receptor 2A (Homo sapiens) (UniProt P28223); settings: Compound concentration 10.0 uM
[35] = biological target: T5, Kappa-type opioid receptor; settings: Compound concentration 10.0 uM
[36] = biological target: Sodium-dependent noradrenaline transporter (Homo sapiens) (UniProt P23975); settings: Compound concentration 10.0 uM
[37] = GPCRScan assay: inhibition of GABA/PBR; parameters: species or system Rattus norvegicus; radioligand conc. used [nm] 0.3 – 2.0, parental cells brain tissue
[38] = biological target: Melatonin receptor type 1A (Homo sapiens) (UniProt P48039); assay: MT1 (ML1A) (h) CEREP ligand profiling; settings: filed as agonist, Compound concentration 10.0 uM
[39] = biological target: Beta-2 adrenergic receptor (Homo sapiens) (UniProt P07550); settings: Compound concentration 10.0 uM
[40] = biological target: Histamine H2 receptor (Homo sapiens) (UniProt P25021); settings: Compound concentration 10.0 uM
[41] = biological target: Cholecystokinin receptor type A (Homo sapiens) (UniProt P32238); assay: CCK1 (CCKA) (h) CEREP ligand profiling; settings: filed as agonist, Compound concentration 10.0 uM
[42] = biological target: Histamine H1 receptor (Homo sapiens) (UniProt P35367); settings: Compound concentration 10.0 uM
[43] = biological target: 5-hydroxytryptamine receptor 1E (Homo sapiens) (UniProt P28566); settings: Compound concentration 10.0 uM
[44] = biological target: Muscarinic acetylcholine receptor M3 (Homo sapiens) (UniProt P20309); settings: Compound concentration 10.0 uM
[45] = biological target: Alpha-2B adrenergic receptor (Homo sapiens, UniProt P18089); assay: GPCRScan assay: inhibition of Alpha2B; parameters: radioligand conc. used [nm] 1.5 – 2.0, parental cells HEKT
[46] = biological target: Adenosine receptor A1 (Homo sapiens) (UniProt P30542); assay: A1 (h) CEREP ligand profiling; settings: filed as antagonist, Compound concentration 10.0 uM
[47] = biological target: T1, Muscarinic acetylcholine receptor M4 (Homo sapiens); assay: M4 (h) CEREP ligand profiling; settings: filed as antagonist, Compound concentration 10.0 uM
[48] = biological target: 5-hydroxytryptamine receptor 2C (Homo sapiens) (UniProt P28335); settings: Compound concentration 10.0 uM
[49] = biological target: Histamine H3 receptor (Homo sapiens) (UniProt Q9Y5N1); settings: Compound concentration 10.0 uM
[50] = biological target: Alpha-1D adrenergic receptor (Homo sapiens) (UniProt P25100); settings: Compound concentration 10.0 uM
[51] = biological target: T7, 5-hydroxytryptamine receptor 1B; assay: 5-HT1B (h) CEREP ligand profiling; settings: filed as antagonist, Compound concentration 10.0 uM
[52] = biological target: Histamine H4 receptor (Homo sapiens) (UniProt Q9H3N8); settings: Compound concentration 10.0 uM
[53] = biological target: Mu-type opioid receptor (Homo sapiens) (UniProt P35372); settings: Compound concentration 10.0 uM
[54] = biological target: D(1B) dopamine receptor (Homo sapiens) (UniProt P21918); settings: Compound concentration 10.0 uM
[55] = biological target: Muscarinic acetylcholine receptor M2 (Homo sapiens) (UniProt P08172); settings: Compound concentration 10.0 uM
[56] = biological target: T6, Sigma intracellular receptor 2; settings: Compound concentration 10.0 uM
[57] = biological target: Adenosine receptor A3 (Homo sapiens) (UniProt P0DMS8); assay: A3 (h) CEREP ligand profiling; settings: filed as agonist, Compound concentration 10.0 uM
[58] = species: Homo sapiens; assay: sigma (non-selective) (h) CEREP ligand profiling; settings: filed as agonist, Compound concentration 10.0 uM
[59] = biological target: Alpha-2A adrenergic receptor (Homo sapiens) (UniProt P08913); settings: Compound concentration 10.0 uM
[60] = biological target: D(1A) dopamine receptor (Homo sapiens) (UniProt P21728); settings: Compound concentration 10.0 uM
[61] = biological target: D(3) dopamine receptor (Homo sapiens, UniProt P35462); settings: Compound concentration 10.0 uM
[62] = biological target: D(4) dopamine receptor (Homo sapiens) (UniProt P21917); settings: Compound concentration 10.0 uM
[63] = biological target: T5, Kappa-type opioid receptor; assay: kappa (h) (KOP) CEREP ligand profiling; settings: filed as agonist, Compound concentration 10.0 uM
[64] = biological target: Alpha-2C adrenergic receptor (Homo sapiens) (UniProt P18825); settings: Compound concentration 10.0 uM
[65] = biological target: T4, 5-hydroxytryptamine receptor 2B; assay: GPCRScan assay: inhibition of 5-HT2B; parameters: radioligand conc. used [nm] 1.0 – 2.0, parental cells stable HEK
[66] = biological target: T2, Spermine oxidase; assay: Horseradish Peroxidase (HRP) Fluorescence Assay
[67] = biological target: Alpha-1B adrenergic receptor (Homo sapiens) (UniProt P35368); settings: Compound concentration 10.0 uM

T4 sequence (P41595 whole entry): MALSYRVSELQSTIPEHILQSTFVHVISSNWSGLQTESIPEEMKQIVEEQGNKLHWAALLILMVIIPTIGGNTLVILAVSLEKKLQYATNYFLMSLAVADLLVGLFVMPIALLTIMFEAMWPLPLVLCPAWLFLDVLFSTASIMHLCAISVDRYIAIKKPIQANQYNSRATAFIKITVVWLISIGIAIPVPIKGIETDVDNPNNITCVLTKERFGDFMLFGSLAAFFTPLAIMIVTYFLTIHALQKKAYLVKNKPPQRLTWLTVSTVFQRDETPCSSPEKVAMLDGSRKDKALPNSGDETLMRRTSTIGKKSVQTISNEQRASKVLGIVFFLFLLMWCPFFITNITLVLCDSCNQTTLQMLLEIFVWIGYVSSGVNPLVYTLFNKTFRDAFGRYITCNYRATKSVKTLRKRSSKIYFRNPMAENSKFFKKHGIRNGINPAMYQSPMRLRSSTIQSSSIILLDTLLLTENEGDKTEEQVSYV
T7 sequence (P28222 whole entry): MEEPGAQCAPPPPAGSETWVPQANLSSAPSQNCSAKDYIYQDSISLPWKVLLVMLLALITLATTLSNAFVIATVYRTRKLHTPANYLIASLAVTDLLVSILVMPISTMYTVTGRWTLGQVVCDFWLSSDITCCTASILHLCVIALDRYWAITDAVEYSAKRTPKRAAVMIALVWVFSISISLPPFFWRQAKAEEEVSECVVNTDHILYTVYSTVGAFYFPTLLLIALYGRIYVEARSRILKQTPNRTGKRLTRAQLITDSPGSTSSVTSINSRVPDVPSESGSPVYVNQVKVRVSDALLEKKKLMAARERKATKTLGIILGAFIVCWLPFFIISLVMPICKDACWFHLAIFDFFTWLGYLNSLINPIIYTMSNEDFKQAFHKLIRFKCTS
T3 sequence (P28221 whole entry): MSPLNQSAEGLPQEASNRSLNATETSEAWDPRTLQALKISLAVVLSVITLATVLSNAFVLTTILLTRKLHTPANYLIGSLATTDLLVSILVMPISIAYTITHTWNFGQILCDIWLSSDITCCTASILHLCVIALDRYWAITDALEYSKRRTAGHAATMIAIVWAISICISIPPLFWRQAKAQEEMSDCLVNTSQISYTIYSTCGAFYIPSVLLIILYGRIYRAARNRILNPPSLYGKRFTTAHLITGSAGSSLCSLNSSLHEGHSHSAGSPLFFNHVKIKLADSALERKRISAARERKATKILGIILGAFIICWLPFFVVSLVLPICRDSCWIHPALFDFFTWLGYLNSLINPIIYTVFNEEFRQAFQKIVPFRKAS
T5 sequence (P41145 whole entry): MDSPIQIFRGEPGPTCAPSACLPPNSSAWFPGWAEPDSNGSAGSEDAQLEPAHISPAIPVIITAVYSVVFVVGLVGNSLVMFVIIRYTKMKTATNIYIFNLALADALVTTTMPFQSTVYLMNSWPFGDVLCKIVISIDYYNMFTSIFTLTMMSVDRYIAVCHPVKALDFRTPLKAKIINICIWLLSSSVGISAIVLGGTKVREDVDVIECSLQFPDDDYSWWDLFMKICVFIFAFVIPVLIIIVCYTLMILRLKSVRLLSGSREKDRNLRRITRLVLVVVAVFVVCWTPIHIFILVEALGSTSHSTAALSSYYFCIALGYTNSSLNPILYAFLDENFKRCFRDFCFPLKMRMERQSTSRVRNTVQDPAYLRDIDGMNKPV
Chain of 5-hydroxytryptamine receptor 2A (Homo sapiens) (P28223 whole entry): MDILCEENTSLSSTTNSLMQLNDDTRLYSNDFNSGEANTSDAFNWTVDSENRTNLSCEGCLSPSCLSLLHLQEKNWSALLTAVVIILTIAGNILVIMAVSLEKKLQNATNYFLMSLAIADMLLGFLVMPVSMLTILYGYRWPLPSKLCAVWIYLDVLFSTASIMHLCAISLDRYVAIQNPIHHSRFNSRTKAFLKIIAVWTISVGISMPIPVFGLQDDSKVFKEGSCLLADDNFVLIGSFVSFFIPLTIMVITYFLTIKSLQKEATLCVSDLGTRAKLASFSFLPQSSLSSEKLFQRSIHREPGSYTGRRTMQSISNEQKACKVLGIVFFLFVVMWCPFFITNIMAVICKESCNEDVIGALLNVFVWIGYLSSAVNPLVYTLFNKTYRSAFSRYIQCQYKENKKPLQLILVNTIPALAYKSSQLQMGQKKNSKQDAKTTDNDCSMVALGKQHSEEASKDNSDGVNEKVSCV
T6 sequence (Q5BJF2 whole entry): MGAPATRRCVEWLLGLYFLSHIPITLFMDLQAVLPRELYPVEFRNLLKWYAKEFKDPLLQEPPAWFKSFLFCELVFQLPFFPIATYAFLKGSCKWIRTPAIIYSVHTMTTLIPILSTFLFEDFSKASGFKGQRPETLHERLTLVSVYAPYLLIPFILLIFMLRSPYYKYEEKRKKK
T2 sequence (Q9NWM0 whole entry): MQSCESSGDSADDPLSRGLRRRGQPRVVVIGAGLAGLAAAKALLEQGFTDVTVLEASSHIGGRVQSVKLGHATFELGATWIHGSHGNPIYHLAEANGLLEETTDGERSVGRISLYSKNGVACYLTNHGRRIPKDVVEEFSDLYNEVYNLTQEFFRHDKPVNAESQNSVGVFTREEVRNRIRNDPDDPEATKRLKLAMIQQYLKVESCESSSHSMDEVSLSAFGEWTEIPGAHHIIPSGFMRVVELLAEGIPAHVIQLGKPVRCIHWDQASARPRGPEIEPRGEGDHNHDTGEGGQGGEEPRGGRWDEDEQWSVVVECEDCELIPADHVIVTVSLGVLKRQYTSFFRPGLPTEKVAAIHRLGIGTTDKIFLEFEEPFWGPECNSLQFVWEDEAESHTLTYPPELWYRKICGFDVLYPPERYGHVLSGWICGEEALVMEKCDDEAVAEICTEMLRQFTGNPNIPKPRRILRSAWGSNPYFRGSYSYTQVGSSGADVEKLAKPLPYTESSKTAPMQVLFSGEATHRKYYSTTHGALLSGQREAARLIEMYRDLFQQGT
Chain of Melatonin receptor type 1A (Homo sapiens) (P48039 whole entry): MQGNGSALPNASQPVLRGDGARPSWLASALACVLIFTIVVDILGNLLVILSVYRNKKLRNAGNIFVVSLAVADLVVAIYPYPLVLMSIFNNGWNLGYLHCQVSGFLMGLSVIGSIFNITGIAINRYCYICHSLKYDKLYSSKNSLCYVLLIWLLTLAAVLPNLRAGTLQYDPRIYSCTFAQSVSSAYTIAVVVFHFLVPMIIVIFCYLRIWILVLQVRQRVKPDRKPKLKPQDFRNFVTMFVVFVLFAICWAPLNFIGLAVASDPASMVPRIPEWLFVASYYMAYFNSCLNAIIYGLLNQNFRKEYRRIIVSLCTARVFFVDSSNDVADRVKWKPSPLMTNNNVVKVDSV
Chain of Alpha-2B adrenergic receptor (Homo sapiens) (P18089 whole entry): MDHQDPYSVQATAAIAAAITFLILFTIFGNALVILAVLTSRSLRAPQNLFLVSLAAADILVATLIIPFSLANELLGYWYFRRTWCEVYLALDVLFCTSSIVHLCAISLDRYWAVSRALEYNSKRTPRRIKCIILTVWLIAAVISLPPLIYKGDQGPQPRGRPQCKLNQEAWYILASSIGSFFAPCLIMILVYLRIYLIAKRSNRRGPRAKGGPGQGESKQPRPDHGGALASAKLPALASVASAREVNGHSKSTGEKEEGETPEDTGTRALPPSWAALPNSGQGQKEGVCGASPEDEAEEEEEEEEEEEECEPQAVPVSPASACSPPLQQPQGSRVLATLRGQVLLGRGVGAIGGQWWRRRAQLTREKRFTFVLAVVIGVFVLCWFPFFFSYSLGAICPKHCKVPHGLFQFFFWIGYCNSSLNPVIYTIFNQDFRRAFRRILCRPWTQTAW
Chain of Alpha-2B adrenergic receptor (P18089 whole entry): as above
Chain of Muscarinic acetylcholine receptor M1 (Homo sapiens) (P11229 whole entry): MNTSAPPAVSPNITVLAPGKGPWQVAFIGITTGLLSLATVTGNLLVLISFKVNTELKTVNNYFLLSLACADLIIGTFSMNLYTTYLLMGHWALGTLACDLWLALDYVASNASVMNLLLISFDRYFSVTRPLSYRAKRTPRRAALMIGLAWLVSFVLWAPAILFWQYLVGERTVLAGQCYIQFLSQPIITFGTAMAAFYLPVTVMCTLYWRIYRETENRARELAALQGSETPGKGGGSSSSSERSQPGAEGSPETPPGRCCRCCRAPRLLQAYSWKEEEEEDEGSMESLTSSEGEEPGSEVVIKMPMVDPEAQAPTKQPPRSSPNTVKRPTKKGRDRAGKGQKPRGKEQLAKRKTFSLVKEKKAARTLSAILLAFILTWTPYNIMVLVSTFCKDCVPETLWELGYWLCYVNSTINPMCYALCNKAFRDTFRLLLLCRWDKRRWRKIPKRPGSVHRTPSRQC
Chain of Alpha-2A adrenergic receptor (P08913 whole entry): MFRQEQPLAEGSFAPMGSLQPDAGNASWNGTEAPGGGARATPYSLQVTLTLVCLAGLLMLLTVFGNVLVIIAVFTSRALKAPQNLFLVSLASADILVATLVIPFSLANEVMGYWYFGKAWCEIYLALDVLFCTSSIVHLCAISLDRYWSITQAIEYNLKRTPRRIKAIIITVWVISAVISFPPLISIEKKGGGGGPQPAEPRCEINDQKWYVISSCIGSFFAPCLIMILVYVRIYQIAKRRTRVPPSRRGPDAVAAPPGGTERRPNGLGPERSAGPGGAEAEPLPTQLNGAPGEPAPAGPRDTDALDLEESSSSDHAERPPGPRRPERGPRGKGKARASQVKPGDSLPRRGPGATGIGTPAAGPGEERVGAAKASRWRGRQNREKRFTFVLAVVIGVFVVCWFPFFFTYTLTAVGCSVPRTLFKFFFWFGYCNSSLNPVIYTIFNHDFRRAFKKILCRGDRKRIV
Chain of Alpha-2A adrenergic receptor (Homo sapiens) (P08913 whole entry): as above
Chain of Sigma non-opioid intracellular receptor 1 (Homo sapiens) (Q99720 whole entry): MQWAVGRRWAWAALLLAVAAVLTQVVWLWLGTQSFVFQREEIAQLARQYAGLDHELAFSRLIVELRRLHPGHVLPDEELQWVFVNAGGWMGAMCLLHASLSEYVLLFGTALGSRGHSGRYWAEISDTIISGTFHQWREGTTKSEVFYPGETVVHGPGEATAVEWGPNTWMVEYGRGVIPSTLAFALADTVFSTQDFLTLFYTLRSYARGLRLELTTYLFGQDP

inhibition [1]: 25.3%
Ki [2]: 3.83 µM
inhibition [3]: 36.6%
IC50 [4]: 1.2 µM (active)
inhibition [5]: 37.9%
IC50 [6]: > 60 µM (not active)
inhibition [7]: 63%
inhibition [8]: 8.26%
Ki ([9]; read-out: Ki): 0.318 µM and 0.219 µM
Ki ([9]; read-out: pKi (converted)): 0.195 µM
inhibition [10]: 101%
inhibition [11]: 25.6%
inhibition [12]: -7.92%
inhibition [13]: 68.5%
inhibition [14]: 16.6%
inhibition [15]: 24.8%
Ki [16]: 1.17 µM
inhibition [17]: 2.96%
Ki [18]: 1.92 µM
inhibition [19]: 47.7%
Ki ([20]; read-out: Ki): 0.478 µM
Ki ([20]; read-out: pKi (converted)): 0.407 µM
inhibition [21]: 30.5%
inhibition [22]: 56.8%
inhibition [23]: 104%
inhibition [24]: 114%
inhibition [25]: 17.5%
inhibition [26]: 3.52%
inhibition [27]: 13.1%
inhibition [28]: 42.2%
IC50 [29]: 0.79 µM (not active)
inhibition [30]: 57.9%
inhibition [31]: 17.1%
inhibition [32]: 69.9%
inhibition [33]: 75%
inhibition [34]: 27.4%
inhibition [35]: 73.3%
inhibition [36]: 46%
Ki [37]: 0.498 µM
pKi [37]: 6.3
inhibition [38]: 58.8%
inhibition [39]: -4.5%
inhibition [40]: 26.9%
inhibition [41]: 70.3%
inhibition [42]: 4.87%
inhibition [43]: 0.95%
inhibition [44]: 32%
Ki [45]: 3.58 µM
inhibition [46]: 98.9%
inhibition [47]: 59.8%
inhibition [48]: 28.4%
inhibition [49]: -7.55%
inhibition [50]: 28.1%
inhibition [51]: 62.1%
inhibition [52]: 32.6%
inhibition [53]: 24.8%
inhibition [54]: 20.4%
inhibition [55]: 24.3%
inhibition [56]: 76.7%
inhibition [57]: 75.1%
inhibition [58]: 62.8%
inhibition [59]: 64%
inhibition [60]: 28.9%
inhibition [61]: 40.5%
inhibition [62]: 20.9%
inhibition [63]: 74.1%
inhibition [64]: 20.1%
Ki [65]: 0.897 µM
Ki [66]: 0.0099 µM (active)
inhibition [67]: 10.2%
Structure (SMILES): O=C(NCCCn1ccnc1)c1cc2nc(-c3ccccc3)cc(-c3ccccc3)n2n1
